Reference: US9802912B2, “Cyclic ortho ester fuel additive” (AIRBUS OPERATIONS LIMITED, priority 2013, dated 2017)

Columns and labels:
[1] = 1H NMR kinetics of acid catalysed hydrolysis of TMOA in AcOH/AcONa buffers; type: physicochemical
Procedure: Five buffers with constant acetic acid (AcOH) concentration and different H^+ concentrations were made by varying the amount of sodium acetate (AcONa) added (see Table 1). As the ionic concentration of the solution has an impact on the rate constant of hydrolysis, sodium chloride was added to keep the ionic strength constant in all 5 buffers.
The reaction samples were prepared directly in 5 mm NMR tube by adding 15 μL of TMOA in 500 μL of acetone-d6. To start the reaction 100 μL of acetic acid/sodium acetate aqueous buffer was added. All chemicals were purchased at the highest level of purity from Sigma Aldrich. Acetone-D6 and TMOA were dried before each experiment by distilling from 3 Å molecular sieve under nitrogen. Sodium chloride and sodium acetate were dried by heating them at T=100° C. for 4 hours under vacuum.
A 300 MHz NMR spectrometer was used to follow the concentration of TMOA with time by acquiring nine sequential ^1H NMR spectra every 10 min (actual delay time=10.38 min). Presaturation solvent suppression technique was used to obscure the H2O signal. An external reference was used by adding to the NMR tube a sealed capillary tube with 3-(trimethylsilyl)-1-propanesulfonic acid sodium salt dissolved in D2O (concentration=0.1966 M).
The TMOA ^1H NMR spectrum consists of two singlets resonating at 3.15 and 1.33 ppm, assigned to the —OCH3 and —CH3 residues, respectively (integrating 3:1—FIG. 7). The relative peak area (RPA—proportional to concentration) was measured by comparing the —CH3 resonance with that of the external reference.
The approach adopted for determining kH+ and kHA, was to exploit the constancy of Ka (=1.75×10^−5 mol/L) whilst varying the numerators (i.e., [A^−] 2→0.1 and pH 5.07→3.74) and maintaining [HA] constant (i.e., 0.192 mol/L). As the overall rate of reaction (equation III) is a summation of both processes described by kH+ and kHA, the rate constant kobs is therefore proportional to the concentration of both associated and dissociated acids (equation IV). rate=kobs[R—C(OR)3] (III) kobs=kH+[H^+]+kHA[HA] (IV)
Given that [HA] is constant, expression IV becomes equivalent to that of a straight line and kH+ and kHA may be determined by plotting kobs vs [H^+]. To obtain kobs however, the rate equation integrated over time (Eq. V) must be used. In[R—C(OR)3]t—In[R—C(OR)3]0=−kobst (V)
^1H NMR spectroscopy is the technique of choice when studying processes which occur on this timescale. Our choice of HA was acetic acid (AcOH), and five buffered solutions with different H^+ concentration were prepared by varying the amount of sodium acetate (AcONa=A^−). For the study, we switched focus from the aldehyde derivative TEOF (5, Scheme 1) used for the proof of concept study to the faster reacting keto-derivative trimethyl orthoacetate (TMOA) 8, Scheme 2 where R=—CH3) for reasons of atom economy (20% lighter).
[H^+] may be plotted (FIG. 5) and a straight line fitted (y=35.464×+1.6×10^−3; R^2=0.993) from which values for the gradient of the slope and y-intercept afford kH+=35.5 min^−1 and, kHA=7.8×10^−3 min^−1 respectively. It is clear that the pathway catalysed by dissociated acid H^+ (specific acid catalysis—scheme 2) is approximately 4500 times faster than the pathway catalysed by undissociated AcOH, within the pH range studied here (3.7→5.0).

[2] = GC measurement of hydrolysis of triethyl orthoformate by water in Jet A-1; type: physicochemical
Procedure: The analyses were performed using an Agilent 5890 gas chromatograph equipped with a flame ionisation detector. The GC column used was of fused silica, HP-5MS, 30 m by 0.25 mm, with a helium flow rate of 1.5 mL/min. The temperature for the detector and injector was fixed at 250° C. The oven temperature used for the analysis was 80° C. for 4 minutes, then it was increased at 20° C./min to 240° C. and held for 2 minutes.
Jet A-1, obtained by Air BP (Batch number BIS/HAL/12/035K), was dried by storing it over 3 Å molecular sieve for at least 24 hours. Standards with different water concentrations were prepared by adding measured volumes of distilled water by SGE μL syringes to 20 ml of anhydrous Jet A-1, taking extra care to inject the water in the middle of the solvent. Each standard was prepared just before use and ultrasonicated for 5 minutes to ensure an equal distribution of water.
A reactant solution was prepared to enable a simple, one-step addition of all the necessary chemicals. […]
For each water standard, the relative peak area (RPA) of ethanol was calculated by dividing the ethanol peak area by the internal standard peak area. […]

Structure (SMILES)	Kobs ([1]; [AcOH]/[AcONa] 0.486, [H+] 8.51 × 10^−6 mol/L) [min⁻¹]	Kobs ([1]; [AcOH]/[AcONa] 1, [H+] 1.75 × 10^−5 mol/L) [min⁻¹]	Kobs ([1]; [AcOH]/[AcONa] 2.918, [H+] 5.11 × 10^−5 mol/L) [min⁻¹]	Kobs ([1]; [AcOH]/[AcONa] 4, [H+] 7.00 × 10^−5 mol/L) [min⁻¹]	Kobs ([1]; [AcOH]/[AcONa] 10.378, [H+] 1.82 × 10^−4 mol/L) [min⁻¹]	kHA (general acid catalysis, undissociated AcOH) ([1]; from y-intercept of kobs v. [H+], [HA] 0.192 mol/L) [min⁻¹]	kH+ (specific acid catalysis) ([1]; gradient of kobs v. [H+], pH 3.7-5.0) [min⁻¹]	rate of pathway catalysed by H+ relative to pathway catalysed by undissociated AcOH ([1]; pH 3.7-5.0)	reaction with water, completion ([2]; Jet A-1, methane sulfonic acid, 30 minutes) [%]	reaction with water, complete ([2]; Jet A-1, no added acid catalyst, after 2 days)
COC(C)(OC)OC [TMOA, trimethyl orthoacetate]	0.0016	0.0024	0.0036	0.0042	0.008	0.0078	35.5	approximately 4500 times	–	–
CCOC(OCC)OCC [compound 5, triethyl orthoformate]	–	–	–	–	–	–	–	–	100	60-75%
